Measured values: publication PMC5011342, “A high throughput drug screening assay to identify compounds that promote oligodendrocyte differentiation using acutely dissociated and purified oligodendrocyte precursor cells” (BMC Research Notes, 2016)
Counter-ions that a name gives are not always drawn. Like-named read-outs stand apart in the source and are kept apart here.

How the values were obtained:
[1] = test system: acutely dissociated and purified rat OPCs; test: Acute OL differentiation assay (MBP expression/cell, immunofluorescent image quantification); format: cell-based; settings: for activation at 2 µM / activation at 10 µM / EC50 / activation at 0.4 µM / activation at 0.08 µM: Rattus norvegicus; for EC50: average EC50 for induction of OL differentiation from independent biological replicates, eight concentrations; for hit in OL differentiation assay, MRF-TMC: ● = confirmed hit in this paper's assay
How it was run: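 This acute differentiation assay used purified rat OPCs from postnatal day 6–7 pups, seeded into PDL/laminin-coated 96-well plates in differentiation medium lacking PDGF and FGF. Compounds were applied in quadruplicate after a 1–2 h preincubation at 37 °C, 10 % CO2, with 0.1 % DMSO negative and 40 ng/ml T3 positive controls in eight wells. After fixation on DIV4, anti-MBP immunofluorescence images yielded MBP expression/cell.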

expanded OPCs = test: cells; settings: for viability at 0.1 µM / viability at 1 µM / viability at 10 µM: Rattus norvegicus, 72 h
How it was run: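 Toxicity screen: compounds added at 0.1, 1 and 10 µM to PDGF-AA-expanded OPCs in 96-well plates, 3-day incubation at 37 °C, 10% CO2, then alamarBlue 1:10 for 4 h with fluorescence readout. Results set screening doses of 10/2, 2/0.4 or 0.4/0.08 µM.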

[2] = test compound at 2 uM, NCC library screen, sheet "All OLga data", relative to quetiapine, read-out: 2 uM (% Quet)
[3] = test compound at 10 uM, NCC library screen, sheet "All OLga data", relative to quetiapine, read-out: 10 uM (% Quet)
[4] = read-out: 0.1 µM (% DMSO), alamarBlue viability, NCC library compound at 0.1 µM, sheet "All Tox data"
[5] = read-out: 1 µM (% DMSO), alamarBlue viability, NCC library compound at 1 µM, sheet "All Tox data"
[6] = read-out: 10 µM (% DMSO), alamarBlue viability, NCC library compound at 10 µM, sheet "All Tox data"
[7] = alamarBlue viability of expanded OPCs, compound at 0.1 µM, relative to DMSO control
[8] = alamarBlue viability of expanded OPCs, compound at 1 µM, relative to DMSO control
[9] = alamarBlue viability of expanded OPCs, compound at 10 µM, relative to DMSO control
[10] = test compound at 0.4 uM, NCC library screen, sheet "All OLga data", relative to quetiapine, read-out: 0.4 uM (% Quet)
[11] = test compound at 0.08 uM, NCC library screen, sheet "All OLga data", relative to quetiapine, read-out: 0.08 uM (% Quet)
[12] = 2 uM test compound, relative to quetiapine, sheet "All OLga data", read-out: OL differentiation, 2 uM (% Quet)
[13] = 10 uM test compound, relative to quetiapine, sheet "All OLga data", read-out: OL differentiation, 10 uM (% Quet)
[14] = read-out: 0.1 µM (% DMSO), alamarBlue viability of expanded OPCs, compound at 0.1 µM, sheet All Tox data
[15] = read-out: 1 µM (% DMSO), alamarBlue viability of expanded OPCs, compound at 1 µM, sheet All Tox data
[16] = read-out: 10 µM (% DMSO), alamarBlue viability of expanded OPCs, compound at 10 µM, sheet All Tox data
[17] = test compound at 2 uM, NCC library screen, sheet "All OLga data", relative to quetiapine
[18] = test compound at 10 uM, NCC library screen, sheet "All OLga data", relative to quetiapine
[19] = alamarBlue viability, NCC library compound at 0.1 µM, sheet "All Tox data"
[20] = alamarBlue viability, NCC library compound at 1 µM, sheet "All Tox data"
[21] = alamarBlue viability, NCC library compound at 10 µM, sheet "All Tox data"
[22] = 0.4 uM test compound, relative to quetiapine, sheet "All OLga data", read-out: OL differentiation, 0.4 uM (% Quet)

CN(CCOc1ccc(NS(C)(=O)=O)cc1)CCc1ccc(NS(C)(=O)=O)cc1 [Dofetilide, reference compound]
activation at 2 µM [1, 2]: 19.4%
activation at 10 µM [1, 3]: 31.8%
EC50 [1]: 14 µM
hit in OL differentiation assay, MRF-TMC [1]: ●
viability at 0.1 µM (expanded OPCs; [4]): 96.1%
viability at 1 µM (expanded OPCs; [5]): 98%
viability at 10 µM (expanded OPCs; [6]): 122%

CCC(=O)NS(=O)(=O)c1ccc(-c2c(-c3ccccc3)noc2C)cc1 [Parecoxib]
activation at 2 µM [1, 2]: -1.5%
activation at 10 µM [1, 3]: -3%
viability at 0.1 µM (expanded OPCs; [4]): 90.9%
viability at 1 µM (expanded OPCs; [5]): 87.2%
viability at 10 µM (expanded OPCs; [6]): 95.5%

CN(C)C(=O)Oc1ccc[n+](C)c1 [Pyridostigmine Bromide]
activation at 2 µM [1, 2]: -0.46%
activation at 10 µM [1, 3]: 21.5%
0.1 µM (% DMSO) (expanded OPCs; [7]): 92.2 % DMSO
1 µM (% DMSO) (expanded OPCs; [8]): 86.7 % DMSO
10 µM (% DMSO) (expanded OPCs; [9]): 84.4 % DMSO

CCCNCC(O)COc1ccccc1C(=O)CCc1ccccc1 (stereo not drawn) [Propafenone]
activation at 0.4 µM [1, 10]: -15.2%
activation at 2 µM [1, 2]: -3.3%
0.1 µM (% DMSO) (expanded OPCs; [7]): 76.8 % DMSO
1 µM (% DMSO) (expanded OPCs; [8]): 58.7 % DMSO
10 µM (% DMSO) (expanded OPCs; [9]): 29.5 % DMSO

COC(=O)C[C@](O)(CCCC(C)(C)O)C(=O)O[C@@H]1C(OC)=C[C@]23CCCN2CCc2cc4c(cc2[C@H]13)OCO4 [Homoharringtonine]
activation at 0.08 µM [1, 11]: -112%
activation at 0.4 µM [1, 10]: -172%
viability at 0.1 µM (expanded OPCs; [4]): 10.7%
viability at 1 µM (expanded OPCs; [5]): 9.9%
viability at 10 µM (expanded OPCs; [6]): 9.6%

CN1CC[C@]23CCCC[C@H]2[C@H]1Cc1ccc(O)cc13 [Levorphanol]
activation at 2 µM [1, 12]: -6.9%
activation at 10 µM [1, 13]: 17%
viability at 0.1 µM (expanded OPCs; [14]): 77.4%
viability at 1 µM (expanded OPCs; [15]): 83.4%
viability at 10 µM (expanded OPCs; [16]): 74%

C[C@H]1C[C@H]2[C@@H]3CCC4=CC(=O)C=C[C@]4(C)[C@@]3(F)[C@@H](O)C[C@]2(C)[C@@]1(O)C(=O)CCl [Clobetasol]
2 uM (% Quet) [1, 17]: -30.9 % Quet
10 uM (% Quet) [1, 18]: -99.6 % Quet
0.1 µM (% DMSO) (expanded OPCs; [19]): 124.1 % DMSO
1 µM (% DMSO) (expanded OPCs; [20]): 133.0 % DMSO
10 µM (% DMSO) (expanded OPCs; [21]): 121.5 % DMSO

C[C@H]1C[C@H]2[C@@H]3CCC4=CC(=O)C=C[C@]4(C)[C@@]3(Cl)[C@@H](O)C[C@]2(C)[C@@]1(O)C(=O)CO [Beclomethasone]
2 uM (% Quet) ([1]; test compound at 2 uM, MBP expression relative to quetiapine, NCC library screen, sheet "All OLga data"): -121.4 % Quet
2 uM (% Quet) [1, 17]: -1.4 % Quet
10 uM (% Quet) ([1]; test compound at 10 uM, MBP expression relative to quetiapine, NCC library screen, sheet "All OLga data"): -191.3 % Quet
10 uM (% Quet) [1, 18]: -5.2 % Quet
0.1 µM (% DMSO) (expanded OPCs): 90.7 % DMSO
1 µM (% DMSO) (expanded OPCs): 90.4 % DMSO
10 µM (% DMSO) (expanded OPCs): 81.7 % DMSO
0.1 µM (% DMSO) (expanded OPCs; [19]): 110.9 % DMSO
1 µM (% DMSO) (expanded OPCs; [20]): 114.8 % DMSO
10 µM (% DMSO) (expanded OPCs; [21]): 117.6 % DMSO

CCN(CC)C(=O)C1(c2ccccc2)CC1CN (stereo not drawn) [Milnacipran]
activation at 2 µM [1, 12]: -17.2%
activation at 10 µM [1, 13]: -8.5%
viability at 0.1 µM (expanded OPCs; [4]): 88.4%
viability at 1 µM (expanded OPCs; [5]): 85.1%
viability at 10 µM (expanded OPCs; [6]): 71.2%

O=c1[nH]cc(F)c(=O)[nH]1 [5-Fluorouracil]
activation at 0.08 µM [1, 11]: -10.8%
activation at 0.4 µM [1, 10]: -21.3%
0.1 µM (% DMSO) (expanded OPCs; [7]): 80.9 % DMSO
1 µM (% DMSO) (expanded OPCs; [8]): 26.6 % DMSO
10 µM (% DMSO) (expanded OPCs; [9]): 12.2 % DMSO

CN1[C@@H]2C[C@@H](OC(=O)[C@H](CO)c3ccccc3)C[C@H]1[C@@H]1O[C@@H]12 [Scopolamine hydrobromide]
activation at 0.08 µM ([1]; 0.08 uM test compound, relative to quetiapine, sheet "All OLga data", read-out: OL differentiation, 0.08 uM (% Quet)): 21.6%
activation at 0.4 µM [1, 22]: 10.9%
viability at 0.1 µM (expanded OPCs; [14]): 81.1%
viability at 1 µM (expanded OPCs; [15]): 90.5%
viability at 10 µM (expanded OPCs; [16]): 88.5%

CCCc1cc(=O)[nH]c(=S)[nH]1 [Propylthiouracil]
activation at 2 µM [1, 2]: -0.9%
activation at 10 µM [1, 3]: 11.7%
0.1 µM (% DMSO) (expanded OPCs; [7]): 90.3 % DMSO
1 µM (% DMSO) (expanded OPCs; [8]): 95.9 % DMSO
10 µM (% DMSO) (expanded OPCs; [9]): 90.8 % DMSO

CCn1cc(C(=O)O)c(=O)c2cc(F)c(N3CCNCC3)cc21 [Norfloxacin]
activation at 2 µM [1, 2]: -20.2%
activation at 10 µM [1, 3]: -13%
0.1 µM (% DMSO) (expanded OPCs; [7]): 111.0 % DMSO
1 µM (% DMSO) (expanded OPCs; [8]): 105.5 % DMSO
10 µM (% DMSO) (expanded OPCs; [9]): 99.0 % DMSO

Clc1ccc(COC(Cn2ccnc2)c2ccc(Cl)cc2Cl)c(Cl)c1 (stereo not drawn) [Miconazole]
activation at 0.4 µM [1, 10]: 43.2%
0.1 µM (% DMSO) (expanded OPCs; [7]): 91.9 % DMSO
1 µM (% DMSO) (expanded OPCs; [8]): 108.6 % DMSO
10 µM (% DMSO) (expanded OPCs; [9]): 9.2 % DMSO

CNC(=C[N+](=O)[O-])NCCSCc1csc(CN(C)C)n1 [Nizatidine]
activation at 2 µM [1, 12]: -1.7%
activation at 10 µM [1, 13]: 13%
viability at 0.1 µM (expanded OPCs; [14]): 92.6%
viability at 1 µM (expanded OPCs; [15]): 89%
viability at 10 µM (expanded OPCs; [16]): 96.6%

CC(COc1ccccc1Cc1ccccc1)N1CCCCC1 (stereo not drawn) [Benproperine, reference compound]
activation at 0.4 µM [1, 22]: 82.1%
activation at 2 µM [1, 12]: 99.4%
EC50 [1]: 0.8 µM
hit in OL differentiation assay, MRF-TMC [1]: ●
viability at 0.1 µM (expanded OPCs; [14]): 105%
viability at 1 µM (expanded OPCs; [15]): 123%
viability at 10 µM (expanded OPCs; [16]): 20.9%

COC(=O)C1=C(C)NC(C)=C(C(=O)OCCN(C)Cc2ccccc2)C1c1cccc([N+](=O)[O-])c1 (stereo not drawn) [Nicardipine]
activation at 0.08 µM [1, 11]: 8.8%
activation at 0.4 µM [1, 10]: -29%
viability at 0.1 µM (expanded OPCs; [4]): 85.3%
viability at 1 µM (expanded OPCs; [5]): 51.8%
viability at 10 µM (expanded OPCs; [6]): 14.3%

CCOC(=O)C1=C(C)NC(C)=C(C(=O)OC)C1c1cccc([N+](=O)[O-])c1 (stereo not drawn) [Nitrendipine]
activation at 0.4 µM [1, 22]: -4.7%
activation at 2 µM [1, 12]: -27%
viability at 0.1 µM (expanded OPCs; [14]): 104%
viability at 1 µM (expanded OPCs; [15]): 90.7%
viability at 10 µM (expanded OPCs; [16]): 35.6%

COCC1=C(C(=O)OC(C)OC(=O)OC(C)C)N2C(=O)[C@@H](NC(=O)/C(=N\OC)c3csc(N)n3)[C@H]2SC1 (stereo partly drawn) [Cefpodoxime proxetil]
activation at 2 µM [1, 12]: -7.7%
activation at 10 µM [1, 13]: -20.6%
viability at 0.1 µM (expanded OPCs; [14]): 96.9%
viability at 1 µM (expanded OPCs; [15]): 90.7%
viability at 10 µM (expanded OPCs; [16]): 98%

Cl.FC(F)(F)c1cccc(N2CCNCC2)c1
OL differentiation, 2 uM (% Quet) ([1]; 2 uM test compound, relative to quetiapine, sheet "All OLga data"): 23.8 % Quet
OL differentiation, 10 uM (% Quet) ([1]; 10 uM test compound, relative to quetiapine, sheet "All OLga data"): 20.8 % Quet
0.1 µM (% DMSO) (expanded OPCs; alamarBlue viability of expanded OPCs, compound at 0.1 µM, sheet All Tox data): 91.5 % DMSO
1 µM (% DMSO) (expanded OPCs; alamarBlue viability of expanded OPCs, compound at 1 µM, sheet All Tox data): 101.9 % DMSO
10 µM (% DMSO) (expanded OPCs; alamarBlue viability of expanded OPCs, compound at 10 µM, sheet All Tox data): 76.4 % DMSO
